From patent publication US20200405666A9, “TREATMENT OF SYMPTOMS ASSOCIATED WITH FEMALE GASTROPARESIS” (priority 2011, published 2020)

Test system: symptoms of diabetic gastroparesis
Experiment: Phase 2 randomized, double-blind, placebo-controlled study METO-IN-002 of metoclopramide nasal spray: symptom scores (mGCSI-DD, GCSI-DD, PAGI-SYM, other endpoints)
Assay type: in vivo, human
Design: key to Stomach Fullness / Early Satiety / Feeling Full / Loss of Appetite / Bloating / Stomach Larger / Upper Abdominal Pain / Upper Abdominal Discomfort / mGCSI-DD (primary endpoint) / Nausea / Retching / Vomiting / Sheehan Disability Scales / Investigator Assessment of Overall Gastroparesis Severity / Subject Assessment of Overall Gastroparesis Severity / Investigator Assessment of Overall Treatment Effect / Subject Assessment of Overall Treatment Effect / Days w/o Vomiting / Days w/o Nausea / Days w/o Vomiting or Nausea / Days w/o Upper Abdominal Pain or Upper Abdominal Discomfort / Nausea Response by Response Threshold / GCSI-DD / Days w/o Vomiting or Retching &, No Use of Rescue Medication / Nausea Responder Analysis / Overall Severity of Gastroparesis Symptoms - Subject / PAGI-SYM Questionnaire / Nausea/Vomiting (listed under PAGI-SYM Questionnaire) / Bloating (listed under PAGI-SYM Questionnaire) / Upper Abdominal Pain/Discomfort (listed under PAGI-SYM Questionnaire) / Early Satiety (listed under PAGI-SYM Questionnaire): A=Favors Active; P=Favors Placebo
Conditions: for Statistically significant improvement in mGCSI-DD score (in words): 10 mg IN and 14 mg IN arms, Baseline to Week 4
Protocol: Example 1: A Multicenter, Randomized, Double-Blind, Placebo-Controlled, Parallel Group, Dose-Ranging Clinical Study to Evaluate the Efficacy and Safety of Metoclopramide Nasal Spray Solution in Diabetic Subjects with Gastroparesis
The objectives of this study were to evaluate the safety and the effectiveness of two doses of metoclopramide nasal spray solution, 10 mg and 14 mg, compared to placebo in reducing the symptoms of diabetic gastroparesis and to assess the plasma concentrations of two doses of metoclopramide nasal spray in subjects with diabetic gastroparesis following a single dose and at steady state. The aforementioned dosages for the treatment and control of gastroparesis were administered before meals and/or before bed time. Subjects who met the entry criteria after the Washout Period (Day −7 to Day −1) were randomized using an IVRS, to metoclopramide nasal spray 10 mg, 14 mg, or placebo, in roughly equal numbers (approximately 1:1:1) using a predetermined randomization schedule employing permuted blocks. Randomization was preformed centrally.
Metoclopramide nasal spray solution, 200 mg/mL base (as monohydrochloride monohydrate) is a clear colorless to pale-yellow aqueous solution manufactured for Evoke Pharma. The metoclopramide nasal spray was packaged in a 10 mL amber glass vial mounted with a metered nasal spray pump. The metered dose vial delivered a 50 μL or 70 μL spray (10 mg or 14 mg of metoclopramide base respectively) with each actuation. One 10 mL vial contained sufficient metoclopramide nasal spray to deliver 120 doses of 10 mg or 14 mg.
A vehicle control was used as the placebo for metoclopramide nasal spray solution. The placebo spray was packaged in a 10 mL amber glass vial mounted with a metered nasal spray pump. The metered dose vial delivered a 50 μL spray with each actuation. One 10 mL vial contained sufficient placebo to deliver 120 doses. The delivery of either a 50 μL or 70 μL spray is indistinguishable to the subject or study staff.
A 7-day Washout Period preceded randomization. During this time, and for the duration of the study, subjects were asked to discontinue use of all medications that are known to ameliorate or exacerbate symptoms associated with diabetic gastroparesis. Subjects were trained on the use of an interactive voice response system (IVRS) to record the severity of nine gastroparesis symptoms of the GCSI-DD and additional symptoms such as: severity of abdominal pain and abdominal discomfort, number of hours of nausea, number of episodes of vomiting, and overall severity of gastroparesis symptoms in a daily diary. The IVRS was used during the treatment period for self-reported assessments. Subjects completed these diary assessments via the IVRS each evening.
Subjects with a mean GCSI-DD total score of <2.0 or >4.0 during the 7-day Washout Period were excluded from the study.
At the Randomization Visit (Day 0), the Patient Assessment of Upper Gastrointestinal Disorders Symptoms (PAGI-SYM) Questionnaire, and disability questionnaires were administered to the subject and the Investigator and subject assessed overall gastroparesis symptom severity (OGS) prior to taking study drug. Subjects began taking the study drug at the clinical site with a single dose on Day 0. The subjects returned to the clinic for safety and efficacy evaluations on Visits 4, 5, 6, and 7 (Days 7, 14, 21, and 28).
At each scheduled study visit to the clinical study site, the IVRS daily diary compliance was reviewed. In addition, at Visit 5 (Day 14), the PAGI-SYM Questionnaire was administered to the subject and the Investigator and subject assessed OGS severity. At the Final Visit (Day 28) subjects took their last dose of study drug at the clinical site and returned their vial of unused/remaining study drug. The subject completed the PAGI-SYM, and disability questionnaires. The Investigator and subject assessed OGS and overall treatment effect (OTE). […]

[1] = all subjects (ITT), 10 mg IN four times daily
[2] = all subjects (ITT), 14 mg IN four times daily
[3] = females, 10 mg IN four times daily
[4] = females, 10 mg IN four times daily, Week 4, vs placebo
[5] = females, 10 mg IN four times daily, listed as Metoclopramide
[6] = females, 14 mg IN four times daily
[7] = females, 14 mg IN four times daily, Week 4, vs placebo

Question: `CCN(CC)CCNC(=O)c1cc(Cl)c(N)cc1OC` [metoclopramide, -amino-5-chloro-N-(2-(diethylamino)ethyl)-2-methoxybenzamide] was tested. Which “Mean Change from Baseline to Week 4 in mGCSI-DD” value (shortened to “Mean Change from Baseline”) [1] did it give?
Answer: The value was −1.2.

Question: And the “Mean mGCSI-DD total score at Week 4” value [1]?
Answer: The value was 1.6.

Question: And the “Mean Change from Baseline” value [2]?
Answer: Its value is −1.2.

Question: What about the “Mean mGCSI-DD total score at Week 4” value [2] of the same compound?
Answer: Its value is 1.7.

Question: What about the “Statistically significant improvement in mGCSI-DD score (in words)” value (all subjects) of the same compound?
Answer: The value was “neither Treatment Arm experienced statistically significant improvement”.

Question: What about the “Difference of Least Square Means, mGCSI-DD change from Baseline to Week 4” value (all subjects, 10 mg IN vs placebo) of the same compound?
Answer: The value was −0.20.

Question: And the “Difference of Least Square Means, mGCSI-DD change from Baseline to Week 4” value (all subjects, 14 mg IN vs Metoclopramide 10 mg)?
Answer: Its value is 0.06.

Question: And the “Difference of Least Square Means, mGCSI-DD change from Baseline to Week 4” value (all subjects, 14 mg IN vs placebo)?
Answer: The value was −0.14.

Question: And the “Symptoms with statistical separation or improved trends compared to placebo” value (female subjects, 11 symptoms collected)?
Answer: Its value is 11 of 11.

Question: And the “Statistically significant improvement in mGCSI-DD score (in words)” value (females)?
Answer: Its value is “statistically significant improvement”.

Question: And the “Mean Change from Baseline” value [3]?
Answer: Its value is −1.2 (−1.2).

Question: What about the “Mean mGCSI-DD total score at Week 4” value [3] of the same compound?
Answer: The value was 1.6 (1.6).

Question: What about the Bloating [4] of the same compound?
Answer: The Bloating was “A”.

Question: What about the “Bloating (listed under PAGI-SYM Questionnaire)” value [4] of the same compound?
Answer: Its value is “A”.

Question: What about the “Days w/o Nausea” value [4] of the same compound?
Answer: The value was “A (p < 0.05)”.

Question: And the “Days w/o Upper Abdominal Pain or Upper Abdominal Discomfort” value [4]?
Answer: Its value is “A”.

Question: And the “Days w/o Vomiting” value [4]?
Answer: Its value is “A”.

Question: What about the “Days w/o Vomiting or Nausea” value [4] of the same compound?
Answer: The value was “A (p < 0.05)”.

Question: And the “Days w/o Vomiting or Retching &, No Use of Rescue Medication” value [4]?
Answer: The value was “A”.

Question: And the “Early Satiety” value [4]?
Answer: The value was “A”.

Question: What about the “Early Satiety (listed under PAGI-SYM Questionnaire)” value [4] of the same compound?
Answer: The value was “A”.

Question: And the “Feeling Full” value [4]?
Answer: Its value is “A (p < 0.05)”.

Question: What about the GCSI-DD [4] of the same compound?
Answer: Its GCSI-DD is “A (p < 0.05)”.

Question: What about the “Investigator Assessment of Overall Gastroparesis Severity” value [4] of the same compound?
Answer: Its value is “A”.

Question: And the “Investigator Assessment of Overall Treatment Effect” value [4]?
Answer: The value was “P”.

Question: And the “Loss of Appetite” value [4]?
Answer: Its value is “A”.

Question: And the Nausea [4]?
Answer: The Nausea was “A (p < 0.05)”.

Question: What about the “Nausea Responder Analysis” value [4] of the same compound?
Answer: Its value is “A”.

Question: And the “Nausea Response by Response Threshold” value [4]?
Answer: The value was “A (p < 0.05)”.

Question: And the “Nausea/Vomiting (listed under PAGI-SYM Questionnaire)” value [4]?
Answer: The value was “A”.

Question: And the “Overall Severity of Gastroparesis Symptoms - Subject” value [4]?
Answer: The value was “A (p < 0.05)”.

Question: And the “PAGI-SYM Questionnaire” value [4]?
Answer: The value was “A”.

Question: What about the Retching [4] of the same compound?
Answer: The Retching was “A”.

Question: And the “Sheehan Disability Scales” value [4]?
Answer: The value was “A”.

Question: And the “Stomach Fullness” value [4]?
Answer: Its value is “A”.

Question: And the “Stomach Larger” value [4]?
Answer: Its value is “A”.

Question: And the “Subject Assessment of Overall Gastroparesis Severity” value [4]?
Answer: Its value is “A”.

Question: What about the “Subject Assessment of Overall Treatment Effect” value [4] of the same compound?
Answer: The value was “A”.

Question: What about the “Upper Abdominal Discomfort” value [4] of the same compound?
Answer: Its value is “A”.

Question: What about the “Upper Abdominal Pain” value [4] of the same compound?
Answer: Its value is “A (p < 0.05)”.

Question: What about the “Upper Abdominal Pain/Discomfort (listed under PAGI-SYM Questionnaire)” value [4] of the same compound?
Answer: The value was “A”.

Question: What about the Vomiting [4] of the same compound?
Answer: Its Vomiting is “A”.

Question: And the “mGCSI-DD (primary endpoint)” value [4]?
Answer: The value was “A (p < 0.05)”.

Question: What about the “Mean Change from Baseline” value [5] of the same compound?
Answer: Its value is −1.2.

Question: What about the “Mean mGCSI-DD total score at Week 4” value [5] of the same compound?
Answer: Its value is 1.6.

Question: What about the “Difference of Least Square Means, mGCSI-DD change from Baseline to Week 4” value (females, 10 mg IN vs placebo) of the same compound?
Answer: Its value is −0.38.

Question: And the “Mean Change from Baseline” value [6]?
Answer: Its value is −1.3.

Question: What about the “Mean mGCSI-DD total score at Week 4” value [6] of the same compound?
Answer: Its value is 1.7 (1.7).

Question: What about the Bloating [7] of the same compound?
Answer: The Bloating was “A”.

Question: What about the “Bloating (listed under PAGI-SYM Questionnaire)” value [7] of the same compound?
Answer: Its value is “A”.

Question: And the “Days w/o Nausea” value [7]?
Answer: Its value is “A (p < 0.05)”.

Question: What about the “Days w/o Upper Abdominal Pain or Upper Abdominal Discomfort” value [7] of the same compound?
Answer: The value was “P”.

Question: What about the “Days w/o Vomiting” value [7] of the same compound?
Answer: Its value is “A”.

Question: What about the “Days w/o Vomiting or Nausea” value [7] of the same compound?
Answer: Its value is “A (p < 0.05)”.

Question: What about the “Days w/o Vomiting or Retching &, No Use of Rescue Medication” value [7] of the same compound?
Answer: The value was “A”.

Question: What about the “Early Satiety” value [7] of the same compound?
Answer: The value was “A”.

Question: What about the “Early Satiety (listed under PAGI-SYM Questionnaire)” value [7] of the same compound?
Answer: Its value is “A”.

Question: And the “Feeling Full” value [7]?
Answer: The value was “A”.

Question: What about the GCSI-DD [7] of the same compound?
Answer: Its GCSI-DD is “A (p < 0.05)”.

Question: And the “Investigator Assessment of Overall Gastroparesis Severity” value [7]?
Answer: The value was “A”.

Question: What about the “Investigator Assessment of Overall Treatment Effect” value [7] of the same compound?
Answer: Its value is “A”.

Question: What about the “Loss of Appetite” value [7] of the same compound?
Answer: Its value is “A”.

Question: What about the Nausea [7] of the same compound?
Answer: Its Nausea is “A (p < 0.05)”.

Question: And the “Nausea Responder Analysis” value [7]?
Answer: The value was “A (p < 0.05)”.

Question: And the “Nausea Response by Response Threshold” value [7]?
Answer: The value was “A (p < 0.05)”.

Question: And the “Nausea/Vomiting (listed under PAGI-SYM Questionnaire)” value [7]?
Answer: Its value is “A (p < 0.05)”.

Question: What about the “Overall Severity of Gastroparesis Symptoms - Subject” value [7] of the same compound?
Answer: Its value is “A”.

Question: What about the “PAGI-SYM Questionnaire” value [7] of the same compound?
Answer: The value was “A”.

Question: And the Retching [7]?
Answer: Its Retching is “A”.

Question: And the “Sheehan Disability Scales” value [7]?
Answer: Its value is “A”.

Question: What about the “Stomach Fullness” value [7] of the same compound?
Answer: Its value is “A”.

Question: What about the “Stomach Larger” value [7] of the same compound?
Answer: The value was “A (p < 0.05)”.

Question: And the “Subject Assessment of Overall Gastroparesis Severity” value [7]?
Answer: Its value is “A”.

Question: What about the “Subject Assessment of Overall Treatment Effect” value [7] of the same compound?
Answer: The value was “A”.

Question: And the “Upper Abdominal Discomfort” value [7]?
Answer: Its value is “A”.

Question: And the “Upper Abdominal Pain” value [7]?
Answer: The value was “A (p < 0.05)”.

Question: What about the “Upper Abdominal Pain/Discomfort (listed under PAGI-SYM Questionnaire)” value [7] of the same compound?
Answer: The value was “A”.

Question: What about the Vomiting [7] of the same compound?
Answer: The Vomiting was “A”.
